What all share (experiment): relative viability (nuclei count vs DMSO), 5 days (fraction); higher = more cells survive
Compound in test [1]: CC1(C)CCC(CN2CCN(c3ccc(C(=O)NS(=O)(=O)c4ccc(NCC5CCOCC5)c([N+](=O)[O-])c4)c(Oc4cnc5[nH]ccc5c4)c3)CC2)=C(c2ccc(Cl)cc2)C1 [Venetoclax] + COc1cccc2cc(-c3nc([C@H]4CC[C@H](C(=O)O)CC4)n4ncnc(N)c34)[nH]c12 [OSI-027] (partner 0.5 µM)
In a few lines: (§1)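 Lung cancer cell lines in 1536-well plates got either a single drug or a fixed anchor-drug dose together with five library-drug doses (not always all listed) in √10 steps, by pin tool, on the day after seeding. Nuclei were counted after 5 days, and relative viability is the treated-to-vehicle ratio of nuclei counts. Values are medians of duplicate plates.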

Compound in test [2]: Cn1cnc2c(F)c(Nc3ccc(Br)cc3Cl)c(C(=O)NOCCO)cc21 [Selumetinib] + C[C@]1(O)C[C@@H](c2nc(-c3ccc4ccc(-c5ccccc5)nc4c3)c3c(N)nccn32)C1 [Linsitinib] (partner 1 µM)
Summed up:
as §1

Compound in test [3]: Cn1cnc2c(F)c(Nc3ccc(Br)cc3Cl)c(C(=O)NOCCO)cc21 [Selumetinib] + Cc1cc(Nc2cc(N3CCN(C)CC3)nc(Sc3ccc(NC(=O)C4CC4)cc3)n2)n[nH]1 [Tozasertib] (partner 0.1 µM)
Summed up:
as §1

Compound in test [4]: CC1(C)CCC(CN2CCN(c3ccc(C(=O)NS(=O)(=O)c4ccc(NCC5CCOCC5)c([N+](=O)[O-])c4)c(Oc4cnc5[nH]ccc5c4)c3)CC2)=C(c2ccc(Cl)cc2)C1 [Venetoclax] + CC1(C)CCC(c2ccc(Cl)cc2)=C(CN2CCN(c3ccc(C(=O)NS(=O)(=O)c4ccc(N[C@H](CCN5CCOCC5)CSc5ccccc5)c(S(=O)(=O)C(F)(F)F)c4)cc3)CC2)C1 [Navitoclax] (partner 0.5 µM)
Summed up: as §1

Take UMC-11: the relative viability in test [1] (first compound 0.01 µM) was found to be 0.439; in test [1] (first compound 0.03162 µM) it was 0.46; in test [1] (first compound 0.1 µM), 0.465; in test [1] (first compound 0.3162 µM), 0.461; in test [1] (first compound 1 µM), 0.428; in test [2] (first compound 0.02 µM), 0.965. The relative viability in test [2] (first compound 0.06325 µM) came out at 1.08; in test [2] (first compound 0.2 µM), 0.972; in test [2] (first compound 0.6325 µM), 0.984; in test [3] (first compound 0.02 µM), 0.215; in test [3] (first compound 0.06325 µM), 0.203; in test [3] (first compound 0.2 µM), 0.205. Also, the relative viability was 0.199 in test [3] (first compound 0.6325 µM); 0.307 in test [4] (first compound 0.01 µM); 0.31 in test [4] (first compound 0.03162 µM); 0.255 in test [4] (first compound 0.1 µM); 0.284 in test [4] (first compound 0.3162 µM); 0.249 in test [4] (first compound 1 µM).

The values are drawn from the supplement of paper PMC10307832.
